Experiments:
[1] = molecular target: T1, binding of ATF-2 to the HTLV-1 LTR (Homo sapiens, UniProt P15336); test: ATF-2 DNA binding, gel mobility shift assay; settings: 100 μM
T1 sequence (P15336 1-505): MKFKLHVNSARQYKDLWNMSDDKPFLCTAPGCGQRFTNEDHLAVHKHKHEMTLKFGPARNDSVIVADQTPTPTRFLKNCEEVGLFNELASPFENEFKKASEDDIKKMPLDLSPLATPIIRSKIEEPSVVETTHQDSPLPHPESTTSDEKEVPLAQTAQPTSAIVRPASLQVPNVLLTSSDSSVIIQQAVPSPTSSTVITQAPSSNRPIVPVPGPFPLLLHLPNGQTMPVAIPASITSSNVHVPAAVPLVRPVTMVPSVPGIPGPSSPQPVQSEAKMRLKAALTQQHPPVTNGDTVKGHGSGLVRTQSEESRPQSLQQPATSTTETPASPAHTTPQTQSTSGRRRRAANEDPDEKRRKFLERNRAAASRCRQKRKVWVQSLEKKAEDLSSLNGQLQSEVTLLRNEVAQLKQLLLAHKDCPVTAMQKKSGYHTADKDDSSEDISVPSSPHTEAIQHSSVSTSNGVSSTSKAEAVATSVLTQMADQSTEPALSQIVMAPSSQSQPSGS
Method: (§1) In these studies, the DNA binding activities of two eukaryotic transcription factors, Oct-1 and ATF-2, were analyzed using a gel mobility shift assay. Purified Oct-1 was inculcated in the absence or presence of 100 μM neomycin B with a ^32 P-labelled 70-nt DNA probe containing an HSV ICPO octamer binding site (Stern and Her, Genes and Development, 5:2555-2566 (1991)). Additionally, the effect of 100 μM neomycin B on the binding of ATF-2 to a 35-nt DNA probe homologous to nucleotides -251 to -232 of the HTLV-1 LTR was analyzed.

[2] = molecular target: T2, binding of Oct-1 to the HSV ICPO octamer binding site (Homo sapiens, UniProt P14859); test: Oct-1 DNA binding, gel mobility shift assay; settings: 100 μM
T2 sequence (P14859 1-743): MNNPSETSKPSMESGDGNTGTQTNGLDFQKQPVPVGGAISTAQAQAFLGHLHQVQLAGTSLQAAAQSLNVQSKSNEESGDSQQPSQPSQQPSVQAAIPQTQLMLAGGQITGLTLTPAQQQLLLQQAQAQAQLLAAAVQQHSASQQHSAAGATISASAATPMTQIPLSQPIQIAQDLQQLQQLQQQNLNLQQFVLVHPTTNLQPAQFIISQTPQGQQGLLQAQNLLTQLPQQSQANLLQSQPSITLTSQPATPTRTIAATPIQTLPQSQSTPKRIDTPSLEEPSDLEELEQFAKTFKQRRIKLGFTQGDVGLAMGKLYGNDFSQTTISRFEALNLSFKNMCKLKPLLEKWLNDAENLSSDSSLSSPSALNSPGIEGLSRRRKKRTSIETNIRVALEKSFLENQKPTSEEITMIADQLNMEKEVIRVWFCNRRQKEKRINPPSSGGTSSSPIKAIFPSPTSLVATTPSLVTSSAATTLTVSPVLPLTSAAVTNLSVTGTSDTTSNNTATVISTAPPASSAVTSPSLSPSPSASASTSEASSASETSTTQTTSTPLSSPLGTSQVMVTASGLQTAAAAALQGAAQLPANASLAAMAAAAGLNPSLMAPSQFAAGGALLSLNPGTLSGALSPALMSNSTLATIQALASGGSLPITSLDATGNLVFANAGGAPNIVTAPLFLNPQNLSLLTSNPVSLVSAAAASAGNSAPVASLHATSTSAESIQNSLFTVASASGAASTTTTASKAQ
Method: as §1

[3] = tested on: GST-Sex lethal binding to tra RNA; test: Sex lethal binding to tra RNA; design: species or system Drosophila; settings: 100 μM
Description: To determine whether inhibition by 2-DOS aminoglycosides was specific for Rev-RRE interaction, the effect of inhibitory antibiotics on several unrelated sequence-specific RNA- and DNA-binding proteins was examined. Initially, two well-characterized proteins involved in pre-mRNA splicing were examined: the essential splicing factor USAF^65 and the Drosophila splicing regulator Sex lethal.
In these binding experiments, Sex lethal protein or the 65 kD subunit of U2AF^65, each purified as fusion protein with gluthatione-S-transferase (GST), were incubated with a ^32 P-labelled RNA containing the well-characterized polypyrimidine tract-3' splice site found in the Drosophila tra gene. The incubations were performed in the absence or presence of 100 μM neomycin B or 100 μM tobramycin.

67-nt RRE RNA = test: Chemical footprinting (DMS/kethoxal) of the RRE; format: binding, HIV; settings: 0.1, 1.0 and 10 μM; DMS or kethoxal
Method: The experiments described below were performed to determine whether or not neomycin B complexes directly with the RRE and thus blocks Rev binding. To this end, chemical footprinting experiments were performed. The 67-nt RRE RNA was incubated alone, with Rev, or with increasing concentrations of neomycin B, tobramycin, or kanamycin A, (0.1, 1.0 and 10 μM). The incubation mixtures were then treated with either dimethyl sulfate (DMS), which methylates adenosine at N1 and cytosine at N3, or with kethoxal, which modifies N1 and N2 of guanosine. Modification of specific bases was detected by primer extension. Under these conditions, DMS and kethoxal are single strand-specific, and thus the modification pattern of RNA alone provides an indication of secondary structure.

in vitro = format: cell-based; settings: human; U1 cells, all concentrations (0-2.5 mM); read-out: cellular growth, of the untreated control

## NC[C@@H]1O[C@H](O[C@H]2[C@@H](O)[C@H](O[C@@H]3[C@@H](O)[C@H](N)C[C@H](N)[C@H]3O[C@H]3O[C@H](CN)[C@@H](O)[C@H](O)[C@H]3N)O[C@@H]2CO)[C@H](N)[C@@H](O)[C@@H]1O [neomycin B]
[1]
  DNA binding activity of ATF-2 to the HTLV-1 LTR: remained unchanged
[2]
  binding of Oct-1 to the HSV ICPO octamer binding site: unaffected
[3]
  binding of GST-Sex lethal to the tra RNA: unaffected
67-nt RRE RNA
  protection of the RRE from chemical modification: strongly protected residues 46-48
In vitro
  activity: 94 to 108%

— patent US5668165A, “Small molecule inhibition of RNA/ligand binding” (Scriptgen Pharmaceuticals, Inc., priority 1995, dated 1997)
